Data on one molecule can be found in US9593144B2, “FPR1 antagonist derivatives and use thereof” (CHANG GUNG UNIVERSITY, priority 2014, dated 2017).

Structures are written as SMILES. Square brackets hold non-standard residues; d marks the D form. Peptide text beside a SMILES is read from it. * marks the point of attachment. Bz = O=C(c1ccccc1)*

The subject of the assay is MAPKs (ERK, p38 and JNK) and Akt. Description: Western blot: phosphorylation of MAPKs (ERK, p38, JNK) and Akt in fMLF-stimulated neutrophils. Type of assay: cell-based, human. The following applies: HCH6-1 10 μM pre-processed 5 min; fMLF 3 nM, 30 sec. The text has this:
Mitogen-activated protein kinases (MAPKs) and the expression of Akt phosphorylation are closely related to the regulation of cell inflammatory response. By specific binding of antibodies, each compound's influence on protein expression activated by different signals was observed. As to neutrophils, MAPKs (ERIK, p38, and JNK) and Akt signal transduction pathways are involved in the regulation of superoxide anion generation and elastase release. It is can be seen from the above-mentioned experiments that HCH6-1 is capable of competitively inhibiting superoxide anion generation and elastase release. Whether downstream MAPKs and Akt signal transduction pathways of FPR1 were involved in the regulation of superoxide anion generation and elastase release is explored below.
The experimental conditions were as follows. HCH6-1 (10 μM) was pre-processed for 5 min, followed by stimulus of fMLF (3-30 nM) for 30 sec.

Consider `COC(=O)[C@@H](Cc1ccccc1)NC(=O)[C@H](Cc1c[nH]c2ccccc12)NC(=O)c1ccccc1` [Compound 3, N—(N-Benzoyl-L-tryptophanyl)-D-phenylalanine methyl ester] (Bz-Trp-[dF]-OMe), for which the “phosphorylation for MAPKs (ERK, p38 and JNK) and Akt” value is recorded as “significantly suppressed phosphorylation”.
